Data taken from patent publication US9296755B2, “3,4-dihydro-1H-pyrimido[1,6-a]pyrimidin-6(2H)-one compounds and their therapeutic applications” (GlaxoSmithKline Intellectual Property Development Limited, priority 2013, dated 2016).

Key:
Lp-PLA2 in human plasma = molecular target: T1, Lp-PLA2 in human plasma (Homo sapiens, UniProt Q13093); assay: Lp-PLA2 human plasma assay (Thio-PAF assay); format: biochemical; details: pooled human plasma; read-out: pIC50 in the thio-PAF assay (converted)
T1 construct: from tissue; host or cells: pooled human plasma
T1 sequence (Q13093 22-441): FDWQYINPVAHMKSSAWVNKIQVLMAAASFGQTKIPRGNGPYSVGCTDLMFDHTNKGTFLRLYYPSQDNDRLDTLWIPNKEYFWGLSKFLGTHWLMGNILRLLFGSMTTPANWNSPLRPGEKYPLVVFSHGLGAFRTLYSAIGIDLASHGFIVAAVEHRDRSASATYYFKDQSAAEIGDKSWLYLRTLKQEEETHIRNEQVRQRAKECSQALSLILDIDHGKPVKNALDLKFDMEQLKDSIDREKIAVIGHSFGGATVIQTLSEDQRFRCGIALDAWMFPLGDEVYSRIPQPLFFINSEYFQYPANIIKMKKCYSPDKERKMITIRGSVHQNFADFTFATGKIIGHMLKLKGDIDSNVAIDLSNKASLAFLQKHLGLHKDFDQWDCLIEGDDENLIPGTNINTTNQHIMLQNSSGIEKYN
Text: (3) Lipoprotein-Associated Phospholipase A2 (Lp-PLA2) Human Plasma Assay (Also Referred to as “Thio-PAF Assay”)
The human plasma assay utilizes a thioester analog of PAF (phosphatidylcholine), where hydrolysis yields to the formation of a phospholipid containing a free thiol group. The amount of thiol is quantitated continuously by reacting with CPM (7-diethylamino-3-(4′-maleimidylphenyl)-4-methylcoumarin), a maleimide which increases in fluoresence after Michael addition of thiols. This assay may detect the activity of Lp-PLA2 in human plasma, as determined by specific inhibition by Lp-PLA2 inhibitors.
The thio-PAF assay was run as a quenched 15 μL assay. Compounds source plate was prepared by making 1:3 (by volume) serial dilution of the compounds into pure DMSO on 384-well microplate. 0.01 μL of compounds on compound source plate were transferred to 384 well Greiner 784076 (black) low-volume plates by ECHO liquid dispenser. 8 μL pooled human plasma, which was previously aliquoted and frozen, was added. Plates were centrifuged for 10 sec at 500 rpm. After 30 minutes preincubation, 2 μL of substrate solution comprising 2.5 mM 2-thio-PAF [from ethanol stock], 32 μM CPM [from a DMSO stock] and 3.2 mM NEM (N-ethylmaleimide) [made fresh daily in DMSO] in assay buffer of 50 mM HEPES, pH 7.4, 150 mM NaCl, 1 mM CHAPS was added to 384 well Greiner 784076 (black) low-volume plates by BRAVO liquid handling station. After 2 mins, reaction was quenched with 5 μL of 5% aqueous trifluoroacetic acid (TFA). Plates were covered to protect from light and incubated for 40 min at room temperature. Plates were read at ex: 380/em: 485 using Envision microplate reader. PIC50 data, curve and QC analysis were conducted by using XLFit module in Excel.

[1] = molecular target: T2, recombinant human Lp-PLA2 (Homo sapiens, UniProt Q13093); assay: Recombinant human Lp-PLA2 assay (rhLp-PLA2, PED6 assay); format: biochemical; details: recombinant human Lp-PLA2, PED6 substrate; read-out: rhLp-PLA2 (PED6 assay) (pIC50) (converted)
T2 sequence (Q13093 22-441): T1 sequence (Q13093 22-441)
Text: (1) Recombinant Human Lp-PLA2 Assay (rhLp-PLA2) (Also Referred to as “PED6” Assay)
N-((6-(2,4-dinitrophenyl)amino)-hexanoyl)-2-(4,4-difluoro-5,7-dimethyl-4-bora-3a,4a-diaza-s-indacene-3-pentanoyl)-1-hexadecanoyl-sn-glycero-3-phosphoethanolamine, triethylammonium salt (PED6) is a commercially available fluorescently-labeled phospholipid, which is commercially available from Invitrogene and Molecular Probes. There is a quenching […] and a Bodipy fluorescein (FL) group in the sn2 position. Upon cleavage with Lp-PLA2, the Bodipy FL group is liberated and then may result in an increase in fluorescence. Inhibitors of Lp-PLA2 therefore prevent this cleavage and no fluorescent increase is observed.
The PED6 assay was run as an unquenched 10 μL assay. The source plate containing the compounds to be tested was prepared by making 1:3 (by volume) serial dilution of the compounds within DMSO on 384-well microplate. Then, 0.01 μL of the compounds on compound source plate were transferred into 384 well Greiner 784076 (black) plates using ECHO liquid dispenser. 5 μL of recombinant human Lp-PLA2 enzyme (4 nM (or 110 pM) rhLp-PLA2 in assay buffer of 50 mM HEPES, pH 7.4, 150 mM NaCl, 1 mM CHAPS) was added to each well of the plate. Plates were centrifuged for 10 sec at 500 rpm. After 30 minutes preincubation, 5 μL of substrate (4 μM (or 5 μM) PED6 [from 5 mM DMSO stock] in assay buffer of 50 mM HEPES, pH 7.4, 150 mM NaCl, 1 mM CHAPS) was added to 384 well Greiner 784076 (black) plates. Plates were centrifuged for 10 sec at 500 rpm. The plate was covered to protect it from light and incubated for 20 min at room temperature. The plates were read for fluorescence intensity at ex: 480/em: 540 using ViewLux microplate imager for Envision spectrofluroimeters. PIC50 data, curve and QC analysis was conducted by using XL fit module in Excel.

IC50 (Lp-PLA2 in human plasma) [nM]	IC50 [1] [nM]	SMILES
≤ 100	1.58	COc1cccc(CN2CCCn3c2cc(OCc2ccc(F)c(F)c2)nc3=O)c1 [Example E6, 8-((3,4-difluorobenzyl)oxy)-1-(3-methoxybenzyl)-3,4-dihydro-1H-pyrimido[1,6-a]pyrimidin-6(2H)-one]
–	0.631	O=c1nc(OCc2ccc(F)c(F)c2)cc2n1CCCN2Cc1ccc(Cl)cc1 [Example E2, 1-(4-chlorobenzyl)-8-((3,4-difluorobenzyl)oxy)-3,4-dihydro-1H-pyrimido[1,6-a]pyrimidin-6(2H)-one]
≤ 100	–	CCCNC(=O)CN1CCCn2c1cc(OCc1cc(F)c(F)c(F)c1)nc2=O [Example E24, 2-(6-oxo-8-((3,4,5-trifluorobenzyl)oxy)-2,3,4,6-tetrahydro-1H-pyrimido[1,6-a]pyrimidin-1-yl)-N-propylacetamide]
≤ 100	0.2	O=C(CN1CCCn2c1cc(OCc1ccc(F)c(F)c1)nc2=O)N1CCC(F)(F)CC1 [Example E20, 8-((3,4-difluorobenzyl)oxy)-1-(2-(4,4-difluoropiperidin-1-yl)-2-oxoethyl)-3,4-dihydro-1H-pyrimido[1,6-a]pyrimidin-6(2H)-one]
≤ 100	3.16	CCCNC(=O)CN1CCCn2c1cc(OCc1ccc(F)c(F)c1)nc2=O [Example E13, 2-(8-((3,4-difluorobenzyl)oxy)-6-oxo-2,3,4,6-tetrahydro-1H-pyrimido[1,6-a]pyrimidin-1-yl)-N-propylacetamide]
≤ 100	–	O=c1nc(OCc2ccc(Oc3cccc(C(F)(F)F)c3)c(F)c2)cc2n1CCCN2C1CC1 [Example E9, 1-cyclopropyl-8-((3-fluoro-4-(3-(trifluoromethyl)phenoxy)benzyl)oxy)-3,4-dihydro-1H-pyrimido[1,6-a]pyrimidin-6(2H)-one]
≤ 100	–	CNC(=O)CN1CCCn2c1cc(OCc1ccc(F)c(F)c1)nc2=O [Example E17]
≤ 100	–	O=c1nc(OCc2ccc(F)c(F)c2)cc2n1CCCN2Cc1ccccc1 [Example E1, 1-benzyl-8-((3,4-difluorobenzyl)oxy)-3,4-dihydro-1H-pyrimido[1,6-a]pyrimidin-6(2H)-one]
≤ 100	0.794	O=C(CN1CCCn2c1cc(OCc1ccc(F)c(F)c1)nc2=O)N1CCOCC1 [Example E22, 8-((3,4-difluorobenzyl)oxy)-1-(2-morpholino-2-oxoethyl)-3,4-dihydro-H-pyrimido[1,6-a]pyrimidin-6(2H)-one]
≤ 100	–	O=C(CN1CCCn2c1cc(OCc1cc(F)c(F)c(F)c1)nc2=O)N1CCCC1 [Example E14, 1-(2-oxo-2-(pyrrolidin-1-yl)ethyl)-8-((3,4,5-trifluorobenzyl)oxy)-3,4-dihydro-1H-pyrimido[1,6-a]pyrimidin-6(2H)-one]
≤ 100	0.794	O=C(CN1CCCn2c1cc(OCc1ccc(F)c(F)c1)nc2=O)N1CCC(F)CC1 [Example E23, 8-((3,4-difluorobenzyl)oxy)-1-(2-(4-fluoropiperidin-1-yl)-2-oxoethyl)-3,4-dihydro-1H-pyrimido[1,6-a]pyrimidin-6(2H)-one]
≤ 100	–	O=C(CN1CCCn2c1cc(OCc1ccc(F)c(F)c1)nc2=O)N1CCCCC1 [Example E21, 8-((3,4-difluorobenzyl)oxy)-1-(2-oxo-2-(piperidin-1-yl)ethyl)-3,4-dihydro-H-pyrimido[1,6-a]pyrimidin-6(2H)-one]
≤ 100	–	O=C(CN1CCCn2c1cc(OCc1ccc(F)c(F)c1)nc2=O)N1CCCC1 [Example E18, 8-((3,4-difluorobenzyl)oxy)-1-(2-oxo-2-(pyrrolidin-1-yl)ethyl)-3,4-dihydro-1H-pyrimido[1,6-a]pyrimidin-6(2H)-one]
≤ 100	–	O=c1nc(OCc2ccc(F)c(F)c2)cc2n1CCCN2Cc1ccc(F)cc1 [Example E3, 8-((3,4-difluorobenzyl)oxy)-1-(4-fluorobenzyl)-3,4-dihydro-1H-pyrimido[1,6-a]pyrimidin-6(2H)-one]
≤ 100	0.794	N#Cc1cc(COc2cc3n(c(=O)n2)CCCN3C2CC2)ccc1Oc1ccc(Cl)c(C(F)(F)F)c1 [Example E11, 2-(4-chloro-3-(trifluoromethyl)phenoxy)-5-(((1-cyclopropyl-6-oxo-2,3,4,6-tetrahydro-1H-pyrimido[1,6-a]pyrimidin-8-yl)oxy)methyl)benzonitrile]
≤ 100	1	COc1ccc(CN2CCCn3c2cc(OCc2ccc(F)c(F)c2)nc3=O)cc1 [Example E4, 8-((3,4-difluorobenzyl)oxy)-1-(4-methoxybenzyl)-3,4-dihydro-1H-pyrimido[1,6-a]pyrimidin-6(2H)-one]
≤ 100	0.501	O=c1nc(OCc2ccc(Oc3ccc(Cl)c(C(F)(F)F)c3)c(F)c2)cc2n1CCCN2C1CC1 [Example E8, 8-((4-(4-chloro-3-(trifluoromethyl)phenoxy)-3-fluorobenzyl)oxy)-1-cyclopropyl-3,4-dihydro-1H-pyrimido[1,6-a]pyrimidin-6(2H)-one]
≤ 100	0.316	CN1CCN(C(=O)CN2CCCn3c2cc(OCc2ccc(F)c(F)c2)nc3=O)CC1 [Example E19, 8-((3,4-difluorobenzyl)oxy)-1-(2-(4-methylpiperazin-1-yl)-2-oxoethyl)-3,4-dihydro-1H-pyrimido[1,6-a]pyrimidin-6(2H)-one]
≤ 100	0.501	O=C(CN1CCCn2c1cc(OCc1cc(F)c(F)c(F)c1)nc2=O)N1CCOCC1 [Example E16, 1-(2-morpholino-2-oxoethyl)-8-((3,4,5-trifluorobenzyl)oxy)-3,4-dihydro-1H-pyrimido[1,6-a]pyrimidin-6(2H)-one]
